From PMC9516332 (Frontiers in Oncology, 2022)
Read-outs that look alike come from different tables or passages of the source.

Tests used:
AP-1060 (ETV6-NTRK3) = assay: Cell viability assay; conditions: read-out: IC50 in cell proliferation assay
134 cancer cell lines = assay: Cell viability assay (ATPlite, 72 hours), IC50 on cancer cell line panel

Structure (SMILES): Cc1cc(Nc2ncc(Cl)c(Nc3ccccc3S(=O)(=O)C(C)C)n2)c(OC(C)C)cc1C1CCNCC1 [ceritinib]
- IC50 (AP-1060 (ETV6-NTRK3)): 1.77 µM
- IC50 (134 cancer cell lines; HEC-6, read-out: IC50 in cell proliferation assay, HEC-6 cell line (EGFR p.A289V)): 3.25 µM
- IC50 (134 cancer cell lines; Homo sapiens, 769-P, read-out: IC50 in cell proliferation assay, cell line 769-P): 2.85 µM
- IC50 (134 cancer cell lines; Homo sapiens, 786-0, read-out: IC50 in cell proliferation assay, cell line 786-O): 3.28 µM
- IC50 (134 cancer cell lines; Homo sapiens, A 172, read-out: IC50 in cell proliferation assay, cell line A-172): 3.94 µM
- IC50 (134 cancer cell lines; Homo sapiens, A204, read-out: IC50 in cell proliferation assay, cell line A-204): 2.68 µM
- IC50 (134 cancer cell lines; Homo sapiens, A498, read-out: IC50 in cell proliferation assay, cell line A-498): 4.17 µM
- IC50 (134 cancer cell lines; Homo sapiens, A549, read-out: IC50 in cell proliferation assay, cell line A-549): 4.56 µM
- IC50 (134 cancer cell lines; Homo sapiens, A704, read-out: IC50 in cell proliferation assay, cell line A-704): 6.19 µM
- IC50 (134 cancer cell lines; Homo sapiens, A-375, read-out: IC50 in cell proliferation assay, cell line A-375 (BRAF p.V600E)): 1.61 µM
- IC50 (134 cancer cell lines; Homo sapiens, A-427, read-out: IC50 in cell proliferation assay, cell line A-427): 1.45 µM
- IC50 (134 cancer cell lines; Homo sapiens, ACHN, read-out: IC50 in cell proliferation assay, cell line ACHN): 4.78 µM
- IC50 (134 cancer cell lines; Homo sapiens, AN3-CA, read-out: IC50 in cell proliferation assay, cell line AN3-CA (FGFR2 p.N549K)): 4.14 µM
- IC50 (134 cancer cell lines; Homo sapiens, ASPC1, read-out: IC50 in cell proliferation assay, cell line AsPC-1): 1.34 µM
- IC50 (134 cancer cell lines; Homo sapiens, AU565, read-out: IC50 in cell proliferation assay, cell line AU565 (ERBB2 amplification)): 3.26 µM
- IC50 (134 cancer cell lines; Homo sapiens, BT-20, read-out: IC50 in cell proliferation assay, cell line BT-20): 6.05 µM
- IC50 (134 cancer cell lines; Homo sapiens, BT-474, read-out: IC50 in cell proliferation assay, cell line BT-474 (ERBB2 amplification)): 3.2 µM
- IC50 (134 cancer cell lines; Homo sapiens, BT-549, read-out: IC50 in cell proliferation assay, cell line BT-549): 3.83 µM
- IC50 (134 cancer cell lines; Homo sapiens, BXPC-3, read-out: IC50 in cell proliferation assay, cell line BxPC-3): 1.7 µM
- IC50 (134 cancer cell lines; Homo sapiens, C-33-A, read-out: IC50 in cell proliferation assay, cell line C-33 A): 4.46 µM
- IC50 (134 cancer cell lines; Homo sapiens, CAL-27, read-out: IC50 in cell proliferation assay, cell line CAL-27): 3.02 µM
- IC50 (134 cancer cell lines; Homo sapiens, CCF-STTG1, read-out: IC50 in cell proliferation assay, cell line CCF-STTG1): 4.5 µM
- IC50 (134 cancer cell lines; Homo sapiens, CCRF-CEM, read-out: IC50 in cell proliferation assay, cell line CCRF-CEM): 3.89 µM
- IC50 (134 cancer cell lines; Homo sapiens, COLO 205, read-out: IC50 in cell proliferation assay, cell line COLO 205 (BRAF p.V600E)): 1.88 µM
- IC50 (134 cancer cell lines; Homo sapiens, COLO-829, read-out: IC50 in cell proliferation assay, cell line COLO 829 (BRAF p.V600E)): 3.26 µM
- IC50 (134 cancer cell lines; Homo sapiens, DLD-1, read-out: IC50 in cell proliferation assay, cell line DLD-1): 4.38 µM
- IC50 (134 cancer cell lines; Homo sapiens, DU-4475, read-out: IC50 in cell proliferation assay, cell line DU4475 (BRAF p.V600E)): 2.18 µM
- IC50 (134 cancer cell lines; Homo sapiens, Daoy, read-out: IC50 in cell proliferation assay, cell line Daoy): 4.95 µM
- IC50 (134 cancer cell lines; Homo sapiens, DoTc2-4510, read-out: IC50 in cell proliferation assay, cell line DoTc2 4510): 1.19 µM
- IC50 (134 cancer cell lines; Homo sapiens, EOL1, read-out: IC50 in cell proliferation assay, cell line EoL-1 (FIP1L1-PDGFRA)): 0.564 µM
- IC50 (134 cancer cell lines; Homo sapiens, FaDu, read-out: IC50 in cell proliferation assay, cell line FaDu): 3.25 µM
- IC50 (134 cancer cell lines; Homo sapiens, G-361, read-out: IC50 in cell proliferation assay, cell line G-361 (BRAF p.V600E)): 1.51 µM
- IC50 (134 cancer cell lines; Homo sapiens, HCC827, read-out: IC50 in cell proliferation assay, cell line HCC827 (EGFR exon19del)): 3.71 µM
- IC50 (134 cancer cell lines; Homo sapiens, HCC4006, read-out: IC50 in cell proliferation assay, cell line HCC4006 (EGFR exon19del)): 2.73 µM
- IC50 (134 cancer cell lines; Homo sapiens, HCT-15, read-out: IC50 in cell proliferation assay, cell line HCT 15): 3.81 µM
- IC50 (134 cancer cell lines; Homo sapiens, HCT-116, read-out: IC50 in cell proliferation assay, cell line HCT 116): 2.72 µM
- IC50 (134 cancer cell lines; Homo sapiens, HEC-1, read-out: IC50 in cell proliferation assay, HEC-1 cell line): 2.71 µM
- IC50 (134 cancer cell lines; Homo sapiens, HEC-1B, read-out: IC50 in cell proliferation assay, HEC-1-B cell line (EGFR p.A864V)): 1.96 µM
- IC50 (134 cancer cell lines; Homo sapiens, HL-60, read-out: IC50 in cell proliferation assay, HL-60 cell line): 0.951 µM
- IC50 (134 cancer cell lines; Homo sapiens, HT, read-out: IC50 in cell proliferation assay, HT cell line): 4.74 µM
- IC50 (134 cancer cell lines; Homo sapiens, HT-1080, read-out: IC50 in cell proliferation assay, HT-1080 cell line): 2 µM
- IC50 (134 cancer cell lines; Homo sapiens, Hs746T, read-out: IC50 in cell proliferation assay, Hs 746.T cell line (MET exon14skip + amplification)): 3.34 µM
- IC50 (134 cancer cell lines; Homo sapiens, Hs-578T, read-out: IC50 in cell proliferation assay, Hs 578T cell line): 4.07 µM
- IC50 (134 cancer cell lines; Homo sapiens, HuTu80, read-out: IC50 in cell proliferation assay, HuTu 80 cell line): 1.67 µM
- IC50 (134 cancer cell lines; Homo sapiens, J82, read-out: IC50 in cell proliferation assay, J82 cell line): 4.5 µM
- IC50 (134 cancer cell lines; Homo sapiens, Jurkat E6.1, read-out: IC50 in cell proliferation assay, Jurkat E6.1 cell line): 4.07 µM
- IC50 (134 cancer cell lines; Homo sapiens, K562, read-out: IC50 in cell proliferation assay, K-562 cell line): 3.97 µM
- IC50 (134 cancer cell lines; Homo sapiens, KATO III, read-out: IC50 in cell proliferation assay, KATO III cell line (FGFR2 amplification)): 2.36 µM
- IC50 (134 cancer cell lines; Homo sapiens, KG-1, read-out: IC50 in cell proliferation assay, KG-1 cell line (FGFR1OP2-FGFR1)): 3.85 µM
- IC50 (134 cancer cell lines; Homo sapiens, KLE, read-out: IC50 in cell proliferation assay, KLE cell line): 3.58 µM
- IC50 (134 cancer cell lines; Homo sapiens, KMS-11, read-out: IC50 in cell proliferation assay, KMS-11 cell line (FGFR3 p.Y373C)): 1.31 µM
- IC50 (134 cancer cell lines; Homo sapiens, KU812, read-out: IC50 in cell proliferation assay, Ku812 cell line): 1.88 µM
- IC50 (134 cancer cell lines; Homo sapiens, Kasumi 1, read-out: IC50 in cell proliferation assay, Kasumi-1 cell line (KIT p.N822K)): 1.04 µM
- IC50 (134 cancer cell lines; Homo sapiens, LC-2-ad, read-out: IC50 in cell proliferation assay, LC-2/ad cell line (CCDC6-RET)): 2.02 µM
- IC50 (134 cancer cell lines; Homo sapiens, LNCaP-Clone-FGC, read-out: IC50 in cell proliferation assay, LNCaP clone FGC cell line): 3.72 µM
- IC50 (134 cancer cell lines; Homo sapiens, LS174T, read-out: IC50 in cell proliferation assay, LS174T cell line): 2 µM
- IC50 (134 cancer cell lines; Homo sapiens, LS-411N, read-out: IC50 in cell proliferation assay, LS411N cell line (BRAF p.V600E)): 1.97 µM
- IC50 (134 cancer cell lines; Homo sapiens, LoVo, read-out: IC50 in cell proliferation assay, LoVo cell line): 3.47 µM
- IC50 (134 cancer cell lines; Homo sapiens, MCF7, read-out: IC50 in cell proliferation assay, MCF-7 cell line): 2.77 µM
- IC50 (134 cancer cell lines; Homo sapiens, MDA-MB-231, read-out: IC50 in cell proliferation assay, MDA-MB-231 cell line): 0.782 µM
- IC50 (134 cancer cell lines; Homo sapiens, MDA-MB-453, read-out: IC50 in cell proliferation assay, MDA-MB-453 cell line): 0.944 µM
- IC50 (134 cancer cell lines; Homo sapiens, MDA-MB-468, read-out: IC50 in cell proliferation assay, MDA-MB-468 cell line): 4.45 µM
- IC50 (134 cancer cell lines; Homo sapiens, MG-63, read-out: IC50 in cell proliferation assay, MG-63 cell line): 3.04 µM
- IC50 (134 cancer cell lines; Homo sapiens, MIA PaCa-2, read-out: IC50 in cell proliferation assay, MIA PaCa-2 cell line): 2.19 µM
- IC50 (134 cancer cell lines; Homo sapiens, MKN-45, read-out: IC50 in cell proliferation assay, MKN45 cell line (MET amplification)): 3.52 µM
- IC50 (134 cancer cell lines; Homo sapiens, MOLM-13, read-out: IC50 in cell proliferation assay, MOLM-13 cell line (FLT3 ITD)): 0.995 µM
